Laboratory results: patent US6737383B1, “Herbicidal oxadiazolidines” (priority 1999, dated 2004)

Legend:
giant foxtail = assay: Test B pre/postemergence giant foxtail; type: in vivo, Setaria faberii
How it was run: (§1)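 Response is a visual 0-to-10 score relative to untreated plants, where 0 means no effect and 10 means complete control, taken twelve to sixteen days after application. Treatments went onto soil at planting and onto foliage of 1- to 4-leaf plants, using a surfactant-containing non-phytotoxic solvent.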

wheat = assay: Test B pre/postemergence wheat; type: in vivo, Triticum aestivum; settings: for Plant response rating, Wheat: scale of 0 to 10 where 0 is no effect and 10 is complete control
How it was run: as §1

crabgrass = assay: Test B pre/postemergence crabgrass; type: in vivo, Digitaria sanguinalis
How it was run: as §1

morningglory = assay: Test B pre/postemergence morningglory; type: in vivo, Ipomoea hederacea; settings: for Plant response rating, Morningglory: scale of 0 to 10 where 0 is no effect and 10 is complete control
How it was run: as §1

rice = assay: Test B flood test rice; type: in vivo, Oryza sativa
How it was run: (§2)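 Read-out is a visual response score from 0 (no effect) to 10 (complete control), assigned by comparison with untreated controls. Treatment was applied at the 2-leaf stage, and plants stayed in the greenhouse for twelve to sixteen days before scoring.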

soybean = assay: Test B pre/postemergence soybean; type: in vivo, Glycine max; settings: for Plant response rating, Soybean: scale of 0 to 10 where 0 is no effect and 10 is complete control
How it was run: as §1

corn = assay: Test B pre/postemergence corn; type: in vivo, Zea mays
How it was run: as §1

duck salad = assay: Test B flood test duck salad; type: in vivo, Heteranthera limosa
How it was run: as §2

sugar beet = assay: Test B pre/postemergence sugar beet; type: in vivo, Beta vulgaris; settings: for Plant response rating, Sugarbeets: scale of 0 to 10 where 0 is no effect and 10 is complete control
How it was run: as §1

rape = assay: Test B pre/postemergence rape; type: in vivo, Brassica napus; settings: for Plant response rating, Rape: scale of 0 to 10 where 0 is no effect and 10 is complete control
How it was run: as §1

cocklebur = assay: Test B pre/postemergence cocklebur; type: in vivo, Xanthium strumarium
How it was run: as §1

purple nutsedge = assay: Test B pre/postemergence purple nutsedge; type: in vivo, Cyperus rotundus; settings: for Plant response rating, Nutsedge: scale of 0 to 10 where 0 is no effect and 10 is complete control
How it was run: as §1

velvetleaf = assay: Test B pre/postemergence velvetleaf; type: in vivo, Abutilon theophrasti; settings: for Plant response rating, Velvetleaf: scale of 0 to 10 where 0 is no effect and 10 is complete control
How it was run: as §1

bamyardgrass = assay: Test B flood test barnyardgrass; type: in vivo, Echinochloa crus-galli
How it was run: as §2

wild oat = assay: Test B pre/postemergence wild oat; type: in vivo, Avena fatua; settings: for Plant response rating, Wild oats: scale of 0 to 10 where 0 is no effect and 10 is complete control
How it was run: as §1

pigweed = assay: Test B pre/postemergence pigweed; type: in vivo, Amaranthus retroflexus
How it was run: as §1

[1] = Postemergence, Rate 250 g/ha, scale 0 to 10
[2] = Postemergence, Rate 500 g/ha, scale of 0 to 10 where 0 is no effect and 10 is complete control
[3] = Preemergence, Rate 62 g/ha, scale of 0 to 10 where 0 is no effect and 10 is complete control
[4] = Preemergence, Rate 125 g/ha, scale of 0 to 10 where 0 is no effect and 10 is complete control
[5] = Preemergence, Rate 250 g/ha, scale 0 to 10, 0 is no effect, 10 is complete control
[6] = Preemergence, Rate 500 g/ha, scale 0 to 10, 0 is no effect, 10 is complete control
[7] = Rate 62 g/ha, Postemergence, scale 0 to 10 (0 no effect, 10 complete control)
[8] = Rate 125 g/ha, Postemergence, scale 0 to 10, 0 is no effect, 10 is complete control
[9] = Rate 62 g/ha, flood test species, Pre-emergence, visual evaluation after twelve to sixteen days
[10] = Rate 125 g/ha, under heading Pre-emergence, flood test species, visual evaluation after twelve to sixteen days
[11] = Rate 250 g/ha, Pre-emergence (flood test species), scale 0 to 10, 0 is no effect, 10 is complete control
[12] = Rate 500 g/ha, Pre-emergence, flood test species, scale 0 to 10 (0 no effect, 10 complete control)

In the case of `CC(C)N(C(=O)n1oc(=O)n(C(C)C(=O)N(C)C)c1=O)c1ccc(Cl)cc1` (stereo not shown) [Compound 480], the “Giant foxtail plant response rating” value (giant foxtail; [1]) is reported as 8, the “Giant foxtail plant response rating” value (giant foxtail; [2]) is reported as 8 and the “Plant response rating, Giant foxtail” value (giant foxtail; [3]) is reported as 10. For the same compound, the “Plant response rating, Giant foxtail” value (giant foxtail; [4]) was 10, the “Giant foxtail plant response rating” value (giant foxtail; [5]) was 10 and the “Giant foxtail plant response rating” value (giant foxtail; [6]) was 10. For the same compound, the “Giant foxtail plant response rating” value (giant foxtail; [7]) was 3, the “Giant foxtail plant response rating” value (giant foxtail; [8]) was 5 and the “Wheat plant response rating” value (wheat; [1]) was 0. The “Plant response rating, Wheat” value (wheat; Preemergence, Rate 62 g/ha) was 0, the “Plant response rating, Wheat” value (wheat; Preemergence, Rate 125 g/ha) was 0 and the “Wheat plant response rating” value (wheat; [5]) was 0. For the same compound, the “Wheat plant response rating” value (wheat; [6]) was 2, the “Wheat plant response rating” value (wheat; [7]) was 0 and the “Wheat plant response rating” value (wheat; [8]) was 0. For the same compound, the “Crabgrass plant response rating” value (crabgrass; [1]) was 7, the “Crabgrass plant response rating” value (crabgrass; [2]) was 8 and the “Plant response rating, Crabgrass” value (crabgrass; [3]) was 7. For the same compound, the “Plant response rating, Crabgrass” value (crabgrass; [4]) was 8, the “Crabgrass plant response rating” value (crabgrass; [5]) was 8 and the “Crabgrass plant response rating” value (crabgrass; [6]) was 10. The “Crabgrass plant response rating” value (crabgrass; [7]) was 2, the “Crabgrass plant response rating” value (crabgrass; [8]) was 6 and the “Morningglory plant response rating” value (morningglory; [1]) was 7. For the same compound, the “Plant response rating, Morningglory” value (morningglory; Preemergence, Rate 62 g/ha) was 0, the “Plant response rating, Morningglory” value (morningglory; Preemergence, Rate 125 g/ha) was 0 and the “Morningglory plant response rating” value (morningglory; [5]) was 0. For the same compound, the “Morningglory plant response rating” value (morningglory; [6]) was 0, the “Morningglory plant response rating” value (morningglory; [7]) was 2 and the “Morningglory plant response rating” value (morningglory; [8]) was 4. The “Plant response rating, Rice (0 to 10 scale, 0 is no effect, 10 is complete control)” value (rice; [9]) was 0, the “Rice plant response rating (0 to 10 scale, 0 is no effect, 10 is complete control)” value (rice; [10]) was 0 and the “Rice plant response rating” value (rice; [11]) was 0. The “Rice plant response rating” value (rice; [12]) was 0, the “Soybean plant response rating” value (soybean; [1]) was 3 and the “Plant response rating, Soybean” value (soybean; Preemergence, Rate 62 g/ha) was 0. For the same compound, the “Plant response rating, Soybean” value (soybean; Preemergence, Rate 125 g/ha) was 0, the “Soybean plant response rating” value (soybean; [5]) was 0 and the “Soybean plant response rating” value (soybean; [6]) was 1. For the same compound, the “Soybean plant response rating” value (soybean; [7]) was 2, the “Soybean plant response rating” value (soybean; [8]) was 3 and the “Corn plant response rating” value (corn; [1]) was 0. For the same compound, the “Corn plant response rating” value (corn; [2]) was 2, the “Plant response rating, Corn” value (corn; [3]) was 0 and the “Plant response rating, Corn” value (corn; [4]) was 0. For the same compound, the “Corn plant response rating” value (corn; [5]) was 0, the “Corn plant response rating” value (corn; [6]) was 3 and the “Corn plant response rating” value (corn; [7]) was 0. For the same compound, the “Corn plant response rating” value (corn; [8]) was 0, the “Plant response rating, Ducksalad (0 to 10 scale, 0 is no effect, 10 is complete control)” value (duck salad; [9]) was 0 and the “Ducksalad plant response rating (0 to 10 scale, 0 is no effect, 10 is complete control)” value (duck salad; [10]) was 0. For the same compound, the “Ducksalad plant response rating” value (duck salad; [11]) was 0, the “Ducksalad plant response rating” value (duck salad; [12]) was 0 and the “Sugarbeets plant response rating” value (sugar beet; [1]) was 0. The “Plant response rating, Sugarbeets” value (sugar beet; Preemergence, Rate 62 g/ha) was 0, the “Plant response rating, Sugarbeets” value (sugar beet; Preemergence, Rate 125 g/ha) was 0 and the “Sugarbeets plant response rating” value (sugar beet; [5]) was 0. For the same compound, the “Sugarbeets plant response rating” value (sugar beet; [6]) was 0, the “Sugarbeets plant response rating” value (sugar beet; [7]) was 0 and the “Sugarbeets plant response rating” value (sugar beet; [8]) was 0. For the same compound, the “Rape plant response rating” value (rape; [1]) was 0, the “Plant response rating, Rape” value (rape; Preemergence, Rate 62 g/ha) was 0 and the “Plant response rating, Rape” value (rape; Preemergence, Rate 125 g/ha) was 0. The “Rape plant response rating” value (rape; [5]) was 0, the “Rape plant response rating” value (rape; [6]) was 0 and the “Rape plant response rating” value (rape; [7]) was 0. For the same compound, the “Rape plant response rating” value (rape; [8]) was 0, the “Cocklebur plant response rating” value (cocklebur; [1]) was 0 and the “Cocklebur plant response rating” value (cocklebur; [2]) was 1. For the same compound, the “Plant response rating, Cocklebur” value (cocklebur; [3]) was 0, the “Plant response rating, Cocklebur” value (cocklebur; [4]) was 0 and the “Cocklebur plant response rating” value (cocklebur; [5]) was 0. The “Cocklebur plant response rating” value (cocklebur; [6]) was 0, the “Cocklebur plant response rating” value (cocklebur; [7]) was 0 and the “Cocklebur plant response rating” value (cocklebur; [8]) was 0. The “Nutsedge plant response rating” value (purple nutsedge; [1]) was 0, the “Plant response rating, Nutsedge” value (purple nutsedge; Preemergence, Rate 62 g/ha) was 0 and the “Plant response rating, Nutsedge” value (purple nutsedge; Preemergence, Rate 125 g/ha) was 0. The “Nutsedge plant response rating” value (purple nutsedge; [5]) was 0, the “Nutsedge plant response rating” value (purple nutsedge; [6]) was 0 and the “Nutsedge plant response rating” value (purple nutsedge; [7]) was 0. The “Nutsedge plant response rating” value (purple nutsedge; [8]) was 0, the “Velvetleaf plant response rating” value (velvetleaf; [1]) was 0 and the “Plant response rating, Velvetleaf” value (velvetleaf; Preemergence, Rate 62 g/ha) was 0. The “Plant response rating, Velvetleaf” value (velvetleaf; Preemergence, Rate 125 g/ha) was 0, the “Velvetleaf plant response rating” value (velvetleaf; [5]) was 0 and the “Velvetleaf plant response rating” value (velvetleaf; [6]) was 0. The “Velvetleaf plant response rating” value (velvetleaf; [7]) was 0, the “Velvetleaf plant response rating” value (velvetleaf; [8]) was 0 and the “Plant response rating, Barnyardgrass (0 to 10 scale, 0 is no effect, 10 is complete control)” value (bamyardgrass; [9]) was 0. For the same compound, the “Barnyardgrass plant response rating (0 to 10 scale, 0 is no effect, 10 is complete control)” value (bamyardgrass; [10]) was 0, the “Barnyardgrass plant response rating” value (bamyardgrass; [11]) was 0 and the “Barnyardgrass plant response rating” value (bamyardgrass; [12]) was 0. For the same compound, the “Wild oats plant response rating” value (wild oat; [1]) was 0, the “Plant response rating, Wild oats” value (wild oat; Preemergence, Rate 62 g/ha) was 0 and the “Plant response rating, Wild oats” value (wild oat; Preemergence, Rate 125 g/ha) was 2. For the same compound, the “Wild oats plant response rating” value (wild oat; [5]) was 4, the “Wild oats plant response rating” value (wild oat; [6]) was 7 and the “Wild oats plant response rating” value (wild oat; [7]) was 0. For the same compound, the “Wild oats plant response rating” value (wild oat; [8]) was 0, the “Redroot pigweed plant response rating” value (pigweed; [1]) was 1 and the “Plant response rating, Redroot pigweed” value (pigweed; [3]) was 2. For the same compound, the “Redroot pigweed plant response rating” value (pigweed; [5]) was 8, the “Redroot pigweed plant response rating” value (pigweed; [6]) was 9 and the “Redroot pigweed plant response rating” value (pigweed; [7]) was 0. For the same compound, the “Redroot pigweed plant response rating” value (pigweed; [8]) was 0.
